Here are results for 3 compounds from patent US12264134B2 (Merck Sharp & Dohme LLC, priority 2018, dated 2025).

The structures appear in SMILES notation.

As usually defined, the IC50 is the midpoint of a concentration-inhibition curve.

The target in assay [1] is T1, IDO1 (Homo sapiens, UniProt P14902). As to the kind of experiment: IDO1 Cellular Assay in HeLa Cells Stimulated with IFNγ. It is filed as cell-based. The conditions noted are these: read-out: HeLa Cell Potency, IC50.
Assay [2] has as its target T1, IDO1. Put plainly: IDO1 Human Whole blood Assay. Type of assay: cell-based. Further details: Human whole blood was drawn in sodium heparin coated tubes from healthy internal donors; from tissue; host or cells: human whole blood from healthy donors, stimulated with LPS and IFNγ. The note with it: LPS and IFNγ stimulated, 18 h, read-out: Human Whole Blood Potency, IC50. Put shortly:
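LC/MS/MS of kynurenine, normalized to spiked isotope-labeled standard (3 μM final), served as the readout. Beforehand, fresh human blood with compound (15 min preincubation) was stimulated overnight (18 h, 37 °C) with 100 ng/mL LPS/IFNγ. IC50 was obtained by four-parameter curve fitting.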

T1 sequence (P14902 whole entry): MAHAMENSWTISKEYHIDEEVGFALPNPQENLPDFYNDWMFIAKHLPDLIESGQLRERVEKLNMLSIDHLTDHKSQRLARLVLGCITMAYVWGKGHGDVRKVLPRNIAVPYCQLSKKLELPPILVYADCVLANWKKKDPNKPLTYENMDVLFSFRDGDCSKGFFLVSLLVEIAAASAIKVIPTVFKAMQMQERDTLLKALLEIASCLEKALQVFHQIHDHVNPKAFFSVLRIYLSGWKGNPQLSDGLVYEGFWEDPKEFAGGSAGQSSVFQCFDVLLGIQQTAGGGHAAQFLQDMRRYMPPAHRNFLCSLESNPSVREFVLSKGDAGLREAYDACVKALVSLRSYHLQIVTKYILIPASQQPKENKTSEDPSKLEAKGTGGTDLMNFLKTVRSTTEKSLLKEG

For the compound `Cc1cccc(N2CCN(C(=O)Cn3nc(C(=O)N4CCC(N)CC4)c4c3C[C@H]3C[C@@H]43)CC2)c1C` [Example 479, 2-((3bR,4aR)-3-(4-aminopiperidine-1-carbonyl)-3b,4,4a,5-tetrahydro-1H-cyclopropa [3,4]cyclopenta[1,2-c]pyrazol-1-yl)-1-(4-(2,3-dimethylphenyl)piperazin-1-yl)ethanone], the values for the IC50 in assay [1] and in assay [2] were 7.51 nM and 230 nM, respectively.
In the case of `Cc1cccc(N2CCN(C(=O)Cn3nc(C(=O)N4CCN(C(=O)CO)CC4)c4c3CCCC4)CC2)c1C` [Example 480, 1-(4-(2,3-dimethylphenyl)piperazin-1-yl)-2-(3-(4-(2-hydroxyacetyl)piperazin-1-carbonyl)-4,5,6,7-tetrahydro-1H-indazol-1-yl)ethanone], the IC50 came out at 8.74 nM in assay [1] and 90 nM in assay [2].
Turning to `Cc1cccc(N2CCN(C(=O)Cn3nc(C(=O)N4CCC(O)CC4)c4c3CCC4)C3(CC3)C2)c1C` [compound 392], the results for the IC50 in assay [1] and in assay [2] were 3.21 nM and 2710 nM, respectively.
